Data set [1] in a line: Cytotoxicity test in HEp-2 cells (CCK8 cell viability). To be noted: human; HEp-2 cells, CCK8, 1 day; read-out: CC50. The format is cell-based. How it is done:
(§1) Human Epithelial Pharyngeal Carcinoma Cells (HEp-2) were from the American Type Culture Collection (ATCC), with a catalog number CCL-23. The cells were cultured in a DMEM culture solution in which 10% fetal bovine serum, 1% sodium pyruvate, 1% nonessential amino acids, 2 mM glutamine, 100 U/mL penicillin, and 100 μg/mL streptomycin were added. The RSV A long virus strain was from the ATCC, with a catalog number VR-26.
A cytotoxicity test and an antiviral test were performed in parallel. The HEp-2 cells were inoculated in the microplate at a density of 30,000 cells per well, and cultured overnight in the 37° C. incubator with 5% CO2. On the next day, the diluted test sample was added. The cell control (cells, without compound treatment) and a culture solution control (culture solution only, without cell or compound treatment) were set. A final concentration of DMSO in the culture solution was 0.5%. The cells were cultured for 1 day in the 37° C. incubator with 5% CO2. Cell viability was detected by using a cell viability detection kit CCK8.
(§2) The raw data for plaque counts and cell viability tests were used for analyzing the antiviral activity and cytotoxicity of the test samples, respectively. A calculation formula was shown as follows.
cell survival rate=(sample value-culture medium control average value)/(cell control average value-culture medium control average value)×100
(§3) Non-linear fitting analysis was performed on the inhibition rate of the sample by using GraphPad Prism (version 10), so as to calculate the IC50 and CC50 values for the sample.
CC50: in the in-vitro antiviral activity experiment, CC50 was used to measure the toxicity of the compound to be tested to the Hep-2 cells. To be precise, when the compound to be tested was at a specific concentration, 50% of the Hep-2 cells was caused to die, and this concentration was defined as the CC50. A fitting formula was log (inhibitor) vs. response-Variable slope (four parameters).

In data set [2] the test system is RSV A long virus strain. The format is cell-based. To be noted: RSV A long virus strain, HEp-2 cells, plaque reduction, 1 day; read-out: IC50. The protocol: In this embodiment, an RSV-A long virus strain was used as an infection virus in the present disclosure. The anti-RSV activity of the synthesized polypeptide was determined through CPE detection.
The inhibitory activity of the compounds of Table 1-1-Table 1-5, positive polypeptide in Table 1-11, and positive control T-118 against the RSV-A long virus strain was detected.
as §1
This study used a plaque reduction experiment to detect the in-vitro activity of a test sample against the RSV A long virus strain. The test sample and a control compound were tested at 8 concentrations in duplicated wells. The HEp-2 cells were digested with trypsin and then diluted to a concentration of 300,000 cells per milliliter by using an experimental culture solution. The diluted cells were added to a 96-well cell test board, with 100 μL per well, corresponding to 30000 cells per well. The cells were cultured overnight in a 37° C. incubator with 5% CO2. On the second day, the test sample was diluted in an experimental culture medium at a fold ratio. The sample diluted at a fold ratio and an equal volume of virus (100 PFU per well) were well mixed and incubated at 37° C. in 5% CO2 for 1 h. Then, the culture solution in the 96-well cell test board was discarded, the sample virus mixed solution (200 μL) was added to the 96-well cell culture plate, and incubated at 37° C. in 5% CO2 for 2 hours. After 2 h, the sample virus mixed solution was discarded, and 200 μL of maintenance culture medium containing 0.8% CMC and the corresponding concentration of the test sample was added. A cell control (cells, without compound treatment or viral infection) and a viral control (cell infection virus, without compound treatment) were set. The cells were cultured for 1 day in the 37° C. incubator with 5% CO2. One day after viral infection, the culture medium was discarded, the cells were fixed with 4% paraformaldehyde, and then permeabilization was performed with 0.5% Triton X-100. After the plate was washed with DPBS, an RSV-specific antibody (RSV antibody, diluted 1:3000) was added and incubated at 37° C. for 1 h. Then, a secondary antibody (donkey anti-goat IgG, diluted 1:500) and incubated at 37° C. for 1 h. The secondary antibody was discarded, a TrueBlue solution was added, dyeing was performed for 10 min; and the plate was washed with running water and then air-dried, and the number of spots in each well was counted by using a microplate imaging counter. Raw data was used for calculating the antiviral activity of the samples.
as §2
% inhibition rate=100−(sample value-cell control average value)/(virus control average value-cell control average value)×100%
as §3
IC50: in an in-vitro antiviral activity experiment, IC50 represented an inhibition ability indicator of a compound to be tested against the Hep-2 cells infected by the RSV A long virus strain.

In general, CC50 refers to the concentration giving 50% cytotoxicity. Usually IC50 stands for the concentration that inhibits the measured activity by half.

Where a SMILES comes first, the peptide text is derived from it. The star is where a group is joined. X1 = CC(C)CCCC(C)C1CCC2C3CC=C4CC(OC(=O)CCC(=O)*)CCC4(C)C3CCC12C

As to `CC[C@H](C)[C@H](NC(=O)[C@H](CCCCN)NC(C)=O)C(=O)N[C@@H](CCC(=O)O)C(=O)N[C@@H](CCC(=O)O)C(=O)N[C@H](C(=O)N[C@@H](CC(N)=O)C(=O)N[C@@H](CCCCN)C(=O)N[C@@H](CCCCN)C(=O)N[C@H](C(=O)N[C@@H](CCC(=O)O)C(=O)N[C@@H](CCC(=O)O)C(=O)N[C@@H](CO)C(=O)N[C@@H](CC(C)C)C(=O)N[C@@H](CCCCN)C(=O)N[C@@H](CCCCN)C(=O)N[C@H](C(=O)N[C@@H](CCC(=O)O)C(=O)N[C@@H](CCC(=O)O)C(=O)N[C@@H](CO)C(=O)N[C@@H](CC(=O)O)C(=O)N[C@@H](CCCCN)C(=O)N[C@@H](CCCCN)C(=O)N[C@@H](CC(C)C)C(=O)N[C@@H](CCC(=O)O)C(=O)N[C@@H](CCC(=O)O)C(=O)N[C@H](C(=O)N[C@@H](CC(N)=O)C(=O)N[C@@H](CCCCN)C(=O)N[C@@H](CCCCN)C(=O)N[C@@H](CC(C)C)C(=O)N[C@@H](CCC(=O)O)C(=O)N[C@@H](C)C(=O)N[C@@H](C)C(=O)N[C@@H](C)C(=O)N[C@@H](CCCCN)C(=O)N[C@@H](CCCCNC(=O)CCC(=O)OC1CCC2(C)C(=CCC3C2CCC2(C)C(C(C)CCCC(C)C)CCC32)C1)C(N)=O)C(C)C)[C@@H](C)CC)[C@@H](C)CC)C(C)C` (stereo partly shown) [Compound 10] (Ac-KIEEVNKKIEESLKKIEESDKKLEEVNKKLEAAAKK(X1)-NH2), the 50% cytotoxic concentration (CC50) at 1 day in data set [1] came out at 1.4 µM. The IC50 in data set [2] turned out to be 0.0181 µM.
The corresponding values for `CC[C@H](C)[C@H](NC(=O)[C@H](CO)NC(=O)[C@H](C)NC(=O)[C@H](CC(=O)O)NC(=O)[C@H](Cc1ccccc1)NC(C)=O)C(=O)N[C@@H](CCC(=O)O)C(=O)N[C@@H](CCC(=O)O)C(=O)N[C@H](C(=O)N[C@@H](CC(N)=O)C(=O)N[C@@H](CCCNC(=N)N)C(=O)N[C@@H](CCCNC(=N)N)C(=O)N[C@H](C(=O)N[C@@H](CCC(=O)O)C(=O)N[C@@H](CCC(=O)O)C(=O)N[C@@H](CO)C(=O)N[C@@H](CC(C)C)C(=O)N[C@@H](CCCNC(=N)N)C(=O)N[C@@H](CCCNC(=N)N)C(=O)N[C@H](C(=O)N[C@@H](CCC(=O)O)C(=O)N[C@@H](CCC(=O)O)C(=O)N[C@@H](CO)C(=O)N[C@@H](CC(=O)O)C(=O)N[C@@H](CCCNC(=N)N)C(=O)N[C@@H](CCCNC(=N)N)C(=O)N[C@@H](CC(C)C)C(=O)N[C@@H](CCC(=O)O)C(=O)N[C@H](C(=O)N[C@@H](CC(N)=O)C(=O)N[C@@H](CCCCN)C(=O)N[C@@H](CCCCN)C(=O)N[C@@H](C)C(=O)NCC(=O)N[C@@H](CO)C(=O)NCC(=O)N[C@@H](CO)C(=O)NCC(=O)N[C@@H](CCCCNC(=O)CCC(=O)OC1CCC2(C)C(=CCC3C2CCC2(C)C(C(C)CCCC(C)C)CCC32)C1)C(N)=O)C(C)C)[C@@H](C)CC)[C@@H](C)CC)C(C)C` (stereo partly shown) [Compound 12] (Ac-FDASIEEVNRRIEESLRRIEESDRRLEVNKKAGSGSGK(X1)-NH2) are more than 8 µM and 0.0284 µM.
The corresponding values for `CC[C@H](C)[C@H](NC(=O)[C@H](CO)NC(=O)[C@H](C)NC(=O)[C@H](CC(=O)O)NC(=O)[C@H](Cc1ccccc1)NC(C)=O)C(=O)N[C@@H](CCC(=O)O)C(=O)N[C@@H](CCC(=O)O)C(=O)N[C@H](C(=O)N[C@@H](CC(N)=O)C(=O)N[C@@H](CCCNC(=N)N)C(=O)N[C@@H](CCCNC(=N)N)C(=O)N[C@H](C(=O)N[C@@H](CCC(=O)O)C(=O)N[C@@H](CCC(=O)O)C(=O)N[C@@H](CO)C(=O)N[C@@H](CC(C)C)C(=O)N[C@@H](CCCNC(=N)N)C(=O)N[C@@H](CCCNC(=N)N)C(=O)N[C@H](C(=O)N[C@@H](CCC(=O)O)C(=O)N[C@@H](CCC(=O)O)C(=O)N[C@@H](CO)C(=O)N[C@@H](CC(=O)O)C(=O)N[C@@H](CCCNC(=N)N)C(=O)N[C@@H](CCCNC(=N)N)C(=O)N[C@@H](CC(C)C)C(=O)N[C@@H](CCC(=O)O)C(=O)N[C@@H](C)C(=O)N[C@@H](C)C(=O)N[C@@H](C)C(=O)N[C@@H](CCCCN)C(=O)N[C@@H](CCCCNC(=O)CCC(=O)OC1CCC2(C)C(=CCC3C2CCC2(C)C(C(C)CCCC(C)C)CCC32)C1)C(N)=O)[C@@H](C)CC)[C@@H](C)CC)C(C)C` (stereo partly shown) [Compound 19] (Ac-FDASIEEVNRRIEESLRRIEESDRRLEAAAKK(X1)-NH2) are 8.3 µM and 0.0162 µM.
Take `CC[C@H](C)[C@H](NC(=O)[C@H](CCCCN)NC(=O)[C@H](CCC(=O)O)NC(=O)[C@H](CC(C)C)NC(=O)[C@H](CO)NC(=O)[C@H](CCC(N)=O)NC(=O)[C@H](CC(N)=O)NC(=O)[C@@H](NC(=O)[C@H](CCCCN)NC(=O)[C@H](CCC(=O)O)NC(=O)[C@H](CC(N)=O)NC(=O)[C@@H](NC(=O)[C@H](CCC(N)=O)NC(=O)[C@H](CO)NC(=O)[C@H](C)NC(=O)[C@H](CC(=O)O)NC(=O)[C@H](Cc1ccccc1)NC(=O)[C@@H](NC(=O)[C@H](CC(C)C)NC(=O)[C@H](CCC(=O)O)NC(=O)[C@H](CC(=O)O)NC(=O)[C@H](Cc1ccc(O)cc1)NC(C)=O)C(C)C)C(C)C)[C@@H](C)CC)C(=O)N[C@@H](CCCNC(=N)N)C(=O)N[C@@H](CCCCN)C(=O)N[C@@H](CO)C(=O)N[C@@H](CC(=O)O)C(=O)N[C@@H](CCC(=O)O)C(=O)N[C@@H](CC(C)C)C(=O)N[C@@H](CC(C)C)C(=O)N[C@@H](Cc1c[nH]cn1)C(=O)N[C@@H](CC(N)=O)C(=O)N[C@H](C(N)=O)C(C)C` [Compound 23] (Ac-YDELVFDASQVNEKINQSLEKIRKSDELLHNV-NH2): the 50% cytotoxic concentration (CC50) at 1 day in data set [1] is more than 8 µM. The half-inhibitory concentration (IC50) in data set [2] was found to be 2.33 µM.
The corresponding values for `CC[C@H](C)[C@H](NC(=O)[C@H](Cc1ccccc1)NC(=O)[C@H](C)NC(=O)[C@H](CC(C)C)NC(=O)[C@H](CO)NC(=O)[C@H](CCC(N)=O)NC(=O)[C@H](CC(N)=O)NC(=O)[C@@H](NC(=O)[C@H](CCCCN)NC(=O)[C@H](CCC(=O)O)NC(=O)[C@H](CC(N)=O)NC(=O)[C@@H](NC(=O)[C@H](CCC(N)=O)NC(=O)[C@H](CCC(=O)O)NC(=O)[C@H](CC(=O)O)NC(=O)[C@H](CO)NC(C)=O)C(C)C)[C@@H](C)CC)C(=O)N[C@@H](CCCNC(=N)N)C(=O)N[C@@H](CCCNC(=N)N)C(=O)N[C@H](C(=O)N[C@@H](CCCNC(=N)N)C(=O)N[C@@H](CCCCN)C(=O)N[C@@H](CC(C)C)C(=O)N[C@@H](CC(C)C)C(=O)N[C@@H](Cc1c[nH]cn1)C(=O)N[C@@H](CC(N)=O)C(=O)N[C@@H](CCC(=O)O)C(=O)N[C@@H](C)C(=O)N[C@@H](C)C(=O)N[C@@H](C)C(=O)N[C@@H](CCCCN)C(=O)N[C@@H](CCCCNC(=O)CCC(=O)OC1CCC2(C)C(=CCC3C2CCC2(C)C(C(C)CCCC(C)C)CCC32)C1)C(N)=O)[C@@H](C)CC` (stereo partly shown) [Compound 31] (Ac-SDEQVNEKINQSLAFIRRIRKLLHNEAAAKK(X1)-NH2) are more than 8 µM and 2.22 µM.
